# Marks after values point to notes of the source that are not given here.
# How the values were obtained:
# [1] = In vitro addition of gamma-tocopherol to ground pork: TBARS of cooked patties; conditions: GT 100 ppm added in vitro to raw ground pork, HO = pork from swine fed high oleic diet
# Method: Applicants assessed the effects of in vitro addition of gamma-tocopherol to ground pork from swine fed a diet supplemented with oleic acid in order to evaluate gamma tocopherol's value as an animal feed supplement when used in conjunction with oleic acid. Gamma-tocopherol was added to the raw (uncooked) ground pork from swine whose diet was not supplemented with oleic acid and swine whose diet was supplemented with oleic acid. Ground pork from pigs fed the respective treatments were formed into patties, cooked and refrigerated for two days in plastic pouches. Samples of the cooked patties were then submitted for TBARS (thiobarbituric acid reactive substances) determination at 0 hours and 24 hours following refrigeration.
# [2] = system: swine; experiment: 2003 swine feed test: belly thickness and flex; assay type: in vivo; conditions: recalculated from Table 2: oleic acid level High or tocotrienol addition 225 ppm
# Text: (§1) Applicants assessed the effects of supplementing the animal diet with oleic acid and tocotrienol on pork meat quality in an experiment in which data from pigs fed one of four dietary treatments were compared. Seventy-two barrows (approximately 20 kg) were randomly placed in pens with water and feed provided ad libitum at the Pioneer Livestock Nutrition Center (PLNC) in Polk City, Iowa. Ad libitum swine feeding continued for 49 days (through Mar. 4, 2003) until the average weight reached 32 kg. A uniform group of 64 pigs was selected, and the pigs were randomly assigned to each of four treatments with 16 experimental units (individually housed pigs) per dietary treatment.
# (§2) On Apr. 22, 2003 (Day 1 of the feed test) the feeders were emptied and the dietary treatments were commenced and continued until Jul. 14, 2003 (Day 83). Dietary treatments consisted of two levels of oleic acid (normal and high) with or without tocotrienol (0 or 225 ppm), as summarized below:
# In the normal or control (CO) diet, the total dietary content of oil was 5.5 wt % of the feed. The oil was a typical corn oil having an oleic acid content of 29.6 wt % of the fatty acid fraction. In the high-oleic acid (HO) diet, the total dietary content of oil was still 5.5 wt %, but the oil was high-oleic sunflower oil with an oleic acid content of 80.2 wt % of the fatty acid fraction. The high oleic sunflower oil was purchased from Cargill, Inc. All four experimental diets were formulated with soybean meal and corn flaking grits. The latter, being largely devoid of oil, were used in conjunction with the corn and high-oleic vegetable oils to achieve the desired dietary fatty acid content. […]
# The pigs were slaughtered at an average weight of 120 kg on Jul. […] Following a 24 hour chill period, the carcasses were transferred to the University of Missouri processing lab, where weight yields were recorded and meat tissue was evaluated.
# The right pork carcass side was fabricated into primal and sub-primal cuts and the bellies were evaluated for thickness, firmness and fatty acid profile.
# [3] = system: swine; experiment: 2003 swine feed test: belly adipose tissue fatty acid composition and iodine value; assay type: in vivo; conditions: recalculated from Table 4: oleic acid level High or tocotrienol addition 225 ppm
# Text: as §1, §2
# In the normal or control (CO) diet, the total dietary content of oil was 5.5 wt % of the feed. The oil was a typical corn oil having an oleic acid content of 29.6 wt % of the fatty acid fraction. In the high-oleic acid (HO) diet, the total dietary content of oil was still 5.5 wt %, but the oil was high-oleic sunflower oil with an oleic acid content of 80.2 wt % of the fatty acid fraction. The high oleic sunflower oil was purchased from Cargill, Inc. All four experimental diets were formulated with soybean meal and corn flaking grits. The latter, being largely devoid of oil, were used in conjunction with the corn and high-oleic vegetable oils to achieve the desired dietary fatty acid content.
# The tocotrienol used to supplement the (TT) and the (HO+TT) diets was obtained commercially from Fuji Chemical Industries (U.S.A.) Inc. of Robbinsville, N.J., and contained 7.5% alpha-, 12.3% gamma- and 3.0% delta-tocotrienol (a total tocotrienol content of 22.8%), as well as 7.2% alpha-tocopherol.
# The fatty acid composition and iodine values in the pork belly adipose tissue was measured.
# [4] = system: swine; experiment: 2003 swine feed test: ground pork visual color score on simulated retail display; assay type: in vivo; conditions: recalculated from Table 6: oleic acid level High or tocotrienol addition 225 ppm
# Text: as §1, §2
# (§3) Samples of ground pork were packaged in PVC wrap and kept on simulated retail display for seven days. During that time trained panelists made a subjective determination of the overall color score and percent discoloration of the ground pork.
# Overall color was graded on a scale of 1.0 to 5.0 as follows: 1.0=bright grayish-pink or reddish-pink (acceptable), 2.0=grayish-pink or reddish-pink (acceptable), 3.0=slightly dark pink/red/pink/tan(acceptable), 3.5=threshold of retail acceptability, 4.0=moderately tan/pinkish-red (unacceptable), and 5.0=dark tan or dark pinkish-red (unacceptable).
# [5] = system: swine; experiment: 2003 swine feed test: ground pork discoloration on simulated retail display; assay type: in vivo; conditions: recalculated from Table 8: oleic acid level High or tocotrienol addition 225 ppm
# Text: as §1, §2, §3
# Percent discoloration was also determined subjectively. In the table that follows, a higher number indicates a greater percent discoloration: […]
# [6] = system: swine; experiment: 2003 swine feed test: TBARS content of uncooked and cooked ground pork; assay type: in vivo; conditions: recalculated from Table 10: oleic acid level High or tocotrienol addition 225 ppm
# Text: as §1, §2
# […]. Cooked ground pork was measured for TBARS concentration at 0 hours and 24 hours after cooking.
# [7] = system: steers; experiment: 2004 cattle feed test: uncooked ribeye steak discoloration; assay type: in vivo; conditions: recalculated from Table 16: oleic acid level High or tocotrienol addition 150 ppm
# Text: Applicants assessed the effects of supplementing the animal diet with oleic acid and tocotrienol on beef quality in an experiment in which data from steers fed one of four dietary treatments were compared. The steers were blocked by weight (heavy or light) and assigned to eight outdoor group pens with five steers per pen. Pens were randomly assigned within each of the two weight blocks to four dietary treatments: (1) simulated oil-rich corn grain (coarse corn grits with corn oil added as 6% of the weight of the grits plus oil) (CO); (2) simulated oil-rich corn grain (coarse corn grits with a similar level of corn oil) with supplemental tocotrienol (CO+TT), (3) simulated high oleic acid corn grain (coarse corn grits with high oleic sunflower oil added as 6% of the weight of the grits plus oil) (HO); and (4) simulated high oleic acid corn grain (coarse corn grits with high oleic sunflower oil added as 6% of the weight of the grits plus oil) with supplemental tocotrienol (HO+TT); as summarized below:
# The steers were fed their respective dietary supplements for 133 days starting Apr. 12, 2004 and ending Aug. 23, 2004. The cattle were loaded on Aug. 24, 2004 and transported to Emporia, Kans. for harvest at the IBP packing plant. Steaks and ground beef samples were evaluated for, among other things, color, shelf life (as measured by percent discoloration over time) and rancidity (as measured by TBARS concentration over time).
# Ribeye steaks utilized for color evaluation were placed onto 17S foam trays with meat, fish and poultry pads (Dri-Loc AC-50) and wrapped with polyvinyl chloride (PVC) film. The steaks were placed under simulated retail display at 34+/−3 degree F. in open top cases programmed to defrost twice daily for seven days. During that time trained panelists made subjective determinations of the overall color score and percent discoloration of the ribeye steaks. […]
# Percent discoloration was also determined subjectively. […]
structure (smiles),measurement,setting,value
"Cc1c(O)cc2c(c1C)O[C@](C)(CCC[C@H](C)CCC[C@H](C)CCCC(C)C)CC2 [GT, gamma-tocopherol]",TBARS content of cooked ground pork patties,[1]; 0 hours following refrigeration,0.746 mg malonaldehyde/kg sample
same,TBARS content of cooked ground pork patties,[1]; 24 hours following refrigeration,1.24 mg malonaldehyde/kg sample
"CCCCCCCC/C=C\CCCCCCCC(=O)O [Oleic Acid, oleic acid]",Belly thickness,[2],35.6 mm
same,Lateral flex,[2],11.0^b
same,Vertical flex,[2],18.7
same,Iodine Value (IV),[3],63.7^b
same,Monounsaturated Fatty Acid (MUFA),[3],55.55^b
same,Polyunsaturated Fatty Acids (PUFA),[3],9.67^b
same,Ground pork visual color score,[4]; Day 3,1.81
same,Ground pork visual color score,[4]; Day 4,2.67
same,Ground pork visual color score,[4]; Day 5,4.38
same,Ground pork discoloration,[5]; Day 3,2.41
same,Ground pork discoloration,[5]; Day 4,2.84
same,Ground pork discoloration,[5]; Day 5,4.64
same,Ground pork oxidation (TBARS),"[6]; cooked, 0 hours",0.69^b mg malonaldehyde/kg sample
same,Ground pork oxidation (TBARS),"[6]; cooked, 24 hours",1.73^b mg malonaldehyde/kg sample
same,Ground pork oxidation (TBARS),"[6]; uncooked, Day 0",0.28 mg malonaldehyde/kg sample
same,Ground pork oxidation (TBARS),"[6]; uncooked, Day 4",0.34 mg malonaldehyde/kg sample
same,Ground pork oxidation (TBARS),"[6]; uncooked, Day 7",0.41 mg malonaldehyde/kg sample
same,Uncooked ribeye steak discoloration,[7]; Day 3,1.4
same,Uncooked ribeye steak discoloration,[7]; Day 5,1.1^b
same,Uncooked ribeye steak discoloration,[7]; Day 7,1.6

# — US8563602B2, “Method of improving animal tissue quality by supplementing the animal diet with oleic acid and selected tocols” (E.I. du Pont de Nemours and Co., priority 2004, dated 2013)
